According to ChEMBL document CHEMBL1201862, “PubChem BioAssay data set” (2004):
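Each compound was tested at five concentrations against cells in 96-well plates for 48 hours. The concentration for 50% growth inhibition is given as GI50.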 Activity calls are given as the source filed them. Rule as the data show it: active = GI50 up to about 1.1 µM and inactive = higher.

How the values were obtained:
Assay in all cases: growth of human tumour cells (NCI), 48 h
U-251 = system: U-251
LOX IMVI = system: LOX IMVI
NCI-H522 = system: NCI-H522
SN12C = system: SN12C
SNB-19 = system: SNB-19
SK-MEL-2 = system: SK-MEL-2
DU-145 = system: DU-145
SW-620 = system: SW-620
RPMI-8226 = system: RPMI-8226
EKVX = system: EKVX
A498 = system: A498
MCF7 = system: MCF7
CAKI-1 = system: CAKI-1
HCT-116 = system: HCT-116
KM12 = system: KM12
IGROV-1 = system: IGROV-1
MDA-MB-435 = system: MDA-MB-435
HCC 2998 = system: HCC 2998

Structure (SMILES) | GI50 (U-251) | GI50 (LOX IMVI) | GI50 (NCI-H522) | GI50 (SN12C) | GI50 (SNB-19) | GI50 (SK-MEL-2) | GI50 (DU-145) | GI50 (SW-620) | GI50 (RPMI-8226) | GI50 (EKVX) | GI50 (A498) | GI50 (MCF7) | GI50 (CAKI-1) | GI50 (HCT-116) | GI50 (KM12) | GI50 (IGROV-1) | GI50 (MDA-MB-435) | GI50 (HCC 2998)
Nc1nc(N)c(N=Nc2ccc([As](=O)(O)O)c(O)c2)c(N)n1 | 22.9 µM (inactive) | 6.67 µM (inactive) | 3.5 µM (inactive) | 12.1 µM (inactive) | 43.2 µM (inactive) | > 21.1 µM (inactive) | 7.5 µM (inactive) | 4.89 µM (inactive) | 3.21 µM (inactive) | > 63.5 µM (inactive) | 83.6 µM (inactive) | 3.75 µM (inactive) | 58.3 µM (inactive) | 7.24 µM (inactive) | 28.8 µM (inactive) | 4.61 µM (inactive) | 0.82 µM (active) | 
O=C(NCc1ccccc1)c1c(O)nc2ccccc2c1O | > 100 µM (inactive) | > 100 µM (inactive) | > 100 µM (inactive) | > 100 µM (inactive) | > 100 µM (inactive) |  | > 100 µM (inactive) | > 100 µM (inactive) | > 100 µM (inactive) | > 100 µM (inactive) | > 100 µM (inactive) | > 100 µM (inactive) | > 100 µM (inactive) | > 100 µM (inactive) | > 100 µM (inactive) | > 100 µM (inactive) | > 100 µM (inactive) | > 100 µM (inactive)
O=c1[nH]c2ccccc2c(=O)c2cc3ccccc3cc12 | 6.28 µM (inactive) | 27.9 µM (inactive) | 10.6 µM (inactive) | 71.4 µM (inactive) | 12.1 µM (inactive) | 22.5 µM (inactive) | 26.9 µM (inactive) | 65.5 µM (inactive) |  | > 100 µM (inactive) | 17.2 µM (inactive) | > 100 µM (inactive) | 16.2 µM (inactive) | 5.78 µM (inactive) | 97.3 µM (inactive) | 48.2 µM (inactive) | > 100 µM (inactive) | > 100 µM (inactive)
Cn1c(=O)c(C(=O)Nc2nc(C34CC5CC(CC(C5)C3)C4)cs2)c(O)c2ccccc21 | 57.5 µM (inactive) | > 100 µM (inactive) | 55.3 µM (inactive) | > 100 µM (inactive) | 35.6 µM (inactive) |  | > 100 µM (inactive) | > 100 µM (inactive) | > 100 µM (inactive) | > 100 µM (inactive) | 58.9 µM (inactive) | > 100 µM (inactive) | 73.5 µM (inactive) | > 100 µM (inactive) | > 100 µM (inactive) | 77.3 µM (inactive) | > 100 µM (inactive) | > 100 µM (inactive)
CC1(C)OC[C@@]2([C@@H]3CC[C@@H](C3)C2(C)C)N1O | 88.9 µM (inactive) | 92 µM (inactive) | 62.1 µM (inactive) | > 100 µM (inactive) | > 100 µM (inactive) | > 100 µM (inactive) | > 100 µM (inactive) | > 100 µM (inactive) | 79.4 µM (inactive) | > 100 µM (inactive) | > 100 µM (inactive) | > 100 µM (inactive) | > 100 µM (inactive) | > 100 µM (inactive) | > 100 µM (inactive) | > 100 µM (inactive) | > 100 µM (inactive) | 
CCNCC(=O)Nc1ccc2c(c1)C(=O)c1ccc(NC(=O)CNCC)cc1C2=O | 1.72 µM (inactive) | 2.26 µM (inactive) | 1.87 µM (inactive) | 1.87 µM (inactive) | 2.7 µM (inactive) | 15.9 µM (inactive) | 2.69 µM (inactive) | 2.99 µM (inactive) |  | 4.93 µM (inactive) | 2.62 µM (inactive) | 1.64 µM (inactive) | 8.77 µM (inactive) | 1.44 µM (inactive) | 11.7 µM (inactive) | 5.51 µM (inactive) | 2.27 µM (inactive) | 1.7 µM (inactive)
